Experiment: xn = mol fraction of the nth substance listed
Conditions: Liquid, Vibrating tube method

CCCCn1cc[n+](C)c1.F[B-](F)(F)F [1-butyl-3-methylimidazolium tetrafluoroborate] + CCO
Conditions	mass density [kg/m3]
298.15 K, 120 kPa, x1 = 0.9152	1199.7
298.15 K, 180 kPa, x1 = 0.7452	1171.71
298.15 K, 210 kPa, x1 = 0.5384	1124.67
298.15 K, 280 kPa, x1 = 1	1211.19
298.15 K, 340 kPa, x1 = 0.3147	1044.49
298.15 K, 390 kPa, x1 = 0.0701	875.91
298.15 K, 4960 kPa, x1 = 0.7452	1174.16
298.15 K, 5040 kPa, x1 = 0.5384	1127.45
298.15 K, 5140 kPa, x1 = 0.9152	1202.06
298.15 K, 5500 kPa, x1 = 0.0701	880.04
298.15 K, 5630 kPa, x1 = 0.3147	1048.05
298.15 K, 5640 kPa, x1 = 1	1213.63
298.15 K, 10030 kPa, x1 = 0.9152	1204.31
298.15 K, 10060 kPa, x1 = 0.7452	1176.71
298.15 K, 10260 kPa, x1 = 0.5384	1130.36
298.15 K, 10620 kPa, x1 = 1	1215.85
298.15 K, 10910 kPa, x1 = 0.3147	1051.47
298.15 K, 11370 kPa, x1 = 0.0701	884.58
298.15 K, 15130 kPa, x1 = 0.0701	887.37
298.15 K, 15210 kPa, x1 = 0.7452	1179.21
298.15 K, 15280 kPa, x1 = 0.3147	1054.2
298.15 K, 15320 kPa, x1 = 0.5384	1133.1
298.15 K, 15340 kPa, x1 = 1	1217.77
298.15 K, 15620 kPa, x1 = 0.9152	1206.82
298.15 K, 20090 kPa, x1 = 0.5384	1135.59
298.15 K, 20360 kPa, x1 = 0.7452	1181.64
298.15 K, 20480 kPa, x1 = 0.9152	1208.95
298.15 K, 20540 kPa, x1 = 0.3147	1057.36
298.15 K, 20640 kPa, x1 = 1	1220.29
298.15 K, 21070 kPa, x1 = 0.0701	891.6
298.15 K, 25270 kPa, x1 = 1	1222.18
298.15 K, 25410 kPa, x1 = 0.7452	1183.95
298.15 K, 25470 kPa, x1 = 0.3147	1060.21
298.15 K, 25570 kPa, x1 = 0.0701	894.66
298.15 K, 26070 kPa, x1 = 0.5384	1138.61
298.15 K, 26140 kPa, x1 = 0.9152	1211.36
298.15 K, 29870 kPa, x1 = 0.9152	1212.91
298.15 K, 30050 kPa, x1 = 1	1223.93
298.15 K, 30070 kPa, x1 = 0.5384	1140.56
298.15 K, 30090 kPa, x1 = 0.7452	1186.03
298.15 K, 30620 kPa, x1 = 0.0701	897.94
298.15 K, 31120 kPa, x1 = 0.3147	1063.34
298.15 K, 35410 kPa, x1 = 0.5384	1143.07
298.15 K, 35410 kPa, x1 = 1	1226.07
298.15 K, 35480 kPa, x1 = 0.7452	1188.36
298.15 K, 35740 kPa, x1 = 0.9152	1215.3
298.15 K, 35800 kPa, x1 = 0.3147	1065.82
298.15 K, 35860 kPa, x1 = 0.0701	901.17
298.15 K, 39340 kPa, x1 = 0.0701	903.23
298.15 K, 39610 kPa, x1 = 1	1227.81
298.15 K, 39770 kPa, x1 = 0.3147	1067.84
298.15 K, 39920 kPa, x1 = 0.7452	1190.22
298.15 K, 39980 kPa, x1 = 0.5384	1145.14
298.15 K, 39980 kPa, x1 = 0.9152	1216.97
323.15 K, 290 kPa, x1 = 0.0701	856.52
323.15 K, 340 kPa, x1 = 0.3147	1026.83
323.15 K, 420 kPa, x1 = 0.7452	1153.47
323.15 K, 510 kPa, x1 = 0.9152	1181.35
323.15 K, 730 kPa, x1 = 1	1192.89
323.15 K, 850 kPa, x1 = 0.5384	1106.94
323.15 K, 4870 kPa, x1 = 0.9152	1183.6
323.15 K, 4890 kPa, x1 = 0.5384	1109.43
323.15 K, 5010 kPa, x1 = 0.3147	1030.15
323.15 K, 5060 kPa, x1 = 0.7452	1156.05
323.15 K, 5410 kPa, x1 = 0.0701	861.09
323.15 K, 5640 kPa, x1 = 1	1195.3
323.15 K, 9860 kPa, x1 = 0.5384	1112.4
323.15 K, 10080 kPa, x1 = 0.9152	1186.23
323.15 K, 10110 kPa, x1 = 0.3147	1033.63
323.15 K, 10610 kPa, x1 = 1	1197.71
323.15 K, 10730 kPa, x1 = 0.0701	865.61
323.15 K, 10740 kPa, x1 = 0.7452	1159.11
323.15 K, 14870 kPa, x1 = 0.5384	1115.29
323.15 K, 15080 kPa, x1 = 0.7452	1161.39
323.15 K, 15210 kPa, x1 = 0.9152	1188.77
323.15 K, 15410 kPa, x1 = 0.3147	1037.07
323.15 K, 15430 kPa, x1 = 0.0701	869.4
323.15 K, 15440 kPa, x1 = 1	1200.01
323.15 K, 20160 kPa, x1 = 0.5384	1118.22
323.15 K, 20310 kPa, x1 = 0.7452	1164.06
323.15 K, 20330 kPa, x1 = 0.0701	873.16
323.15 K, 20460 kPa, x1 = 1	1202.37
323.15 K, 20470 kPa, x1 = 0.9152	1191.31
323.15 K, 20750 kPa, x1 = 0.3147	1040.38
323.15 K, 25010 kPa, x1 = 0.9152	1193.45
323.15 K, 25120 kPa, x1 = 0.7452	1166.45
323.15 K, 25360 kPa, x1 = 1	1204.64
323.15 K, 25380 kPa, x1 = 0.0701	876.83
323.15 K, 25840 kPa, x1 = 0.5384	1121.23
323.15 K, 26290 kPa, x1 = 0.3147	1043.62
323.15 K, 30070 kPa, x1 = 0.9152	1195.79
323.15 K, 30080 kPa, x1 = 0.7452	1168.84
323.15 K, 30260 kPa, x1 = 0.5384	1123.49
323.15 K, 30330 kPa, x1 = 0.0701	880.21
323.15 K, 30640 kPa, x1 = 0.3147	1046.04
323.15 K, 30740 kPa, x1 = 1	1207.09
323.15 K, 34740 kPa, x1 = 0.0701	883.06
323.15 K, 34960 kPa, x1 = 0.9152	1198
323.15 K, 35070 kPa, x1 = 0.7452	1171.16
323.15 K, 35260 kPa, x1 = 0.3147	1048.48
323.15 K, 35420 kPa, x1 = 0.5384	1126.01
323.15 K, 35650 kPa, x1 = 1	1209.29
323.15 K, 39850 kPa, x1 = 1	1211.14
323.15 K, 40000 kPa, x1 = 0.9152	1200.22
323.15 K, 40010 kPa, x1 = 0.0701	886.25
323.15 K, 40010 kPa, x1 = 0.7452	1173.4
323.15 K, 40020 kPa, x1 = 0.5384	1128.17
323.15 K, 40120 kPa, x1 = 0.3147	1050.91
348.15 K, 210 kPa, x1 = 1	1174.44
348.15 K, 230 kPa, x1 = 0.3147	1007.5
348.15 K, 380 kPa, x1 = 0.7452	1134.96
348.15 K, 450 kPa, x1 = 0.5384	1088.13
348.15 K, 460 kPa, x1 = 0.9152	1163.17
348.15 K, 520 kPa, x1 = 0.0701	835.75
348.15 K, 5010 kPa, x1 = 0.5384	1091.32
348.15 K, 5040 kPa, x1 = 0.9152	1165.81
348.15 K, 5340 kPa, x1 = 0.0701	840.67
348.15 K, 5360 kPa, x1 = 0.7452	1138.08
348.15 K, 5740 kPa, x1 = 0.3147	1011.89
348.15 K, 5960 kPa, x1 = 1	1177.75
348.15 K, 10060 kPa, x1 = 0.5384	1094.71
348.15 K, 10090 kPa, x1 = 0.7452	1140.95
348.15 K, 10480 kPa, x1 = 1	1180.3
348.15 K, 11210 kPa, x1 = 0.9152	1169.27
348.15 K, 11420 kPa, x1 = 0.3147	1016.16
348.15 K, 11710 kPa, x1 = 0.0701	846.75
348.15 K, 15080 kPa, x1 = 0.9152	1171.38
348.15 K, 15210 kPa, x1 = 0.5384	1098.01
348.15 K, 15420 kPa, x1 = 0.7452	1144.07
348.15 K, 15430 kPa, x1 = 1	1182.72
348.15 K, 15740 kPa, x1 = 0.3147	1019.22
348.15 K, 15840 kPa, x1 = 0.0701	850.45
348.15 K, 20060 kPa, x1 = 0.5384	1100.98
348.15 K, 20080 kPa, x1 = 0.7452	1146.71
348.15 K, 20550 kPa, x1 = 0.0701	854.43

Reference: the NIST ThermoML archive (doi:10.1007/s10765-008-0410-4)
